The values that follow come from US11339177B2, “Heteroaryl compounds as inhibitors of necrosis, composition and method using the same” (ACCRO BIOSCIENCE INC., priority 2017, dated 2022).

This experiment deals with HT29 cells. In words: Necroptosis assay in HT29 cells (TNF-α, Smac mimetic, z-VAD; cell viability). Type of experiment: cell-based. The settings on record: Homo sapiens, HT-29; TNF-α (40 ng/mL), Smacmimetic (100 nM), z-VAD (20 μM), 48 hours. As for the experimental part: Human colon cancer HT29 cells were used in a necroptosis assay. For this assay, HT29 cells were added to 96-well plates and then were pre-treated with 10 μM of the test compound for one hour. Then the cells were treated with TNF-α (40 ng/mL), Smacmimetic (100 nM) and z-VAD (20 μM) for 48 hours, and the viability of cells was quantified. DMSO pretreatment group was used as negative controls, Nec-1 pretreatment group was used as positive controls.
In Table 2, (1) “ND” indicates “not detected;” (2) Explanation for inhibition %: Taking Compound B14 as an example, its inhibition % was 30% (50 nM). It means that the when Compound B14 at a concentration of 50 nM was used in the HT29 Cell Assay, the necrosis of cells were inhibited at 30%.
The term IC50 denotes the midpoint of a concentration-inhibition curve. Read a low IC50 as higher potency. Take `CC(=O)Nc1nc2ccc(-c3cnc4c(c3)N(C(=O)OC3CCCCC3)CCO4)cc2s1` [Compound B2, Cyclohexyl-7-(2-acetamidobenzo[d]thiazol-6-yl)-2,3-dihydro-1H-pyrido[2,3-b][1,4]oxazine-1-carboxylate]: the IC50 turned out to be 2 nM.

Consider `Nc1nc2cc(-c3cnc4c(c3)N(C(=O)OC3CCCCC3)CCO4)ccn2n1` [Compound B4], for which the IC50 stood at 90 nM.

As to `CC(=O)Nc1nc2cc(-c3cnc4c(c3)N(C(=O)OC3CCCCC3)CCO4)ccn2n1` [Compound B5], inhibition was half-maximal at 42 nM (IC50).

The compound `Nc1nc2ccc(-c3cnc4c(c3)N(C(=O)OC3CCCCC3)CCO4)cn2n1` [Compound B6] came in with a half-maximal inhibitory concentration (IC50) of 90 nM.

Consider `CC(C)(C)OC(=O)Nc1cn2cc(-c3cnc4c(c3)N(C(=O)OC3CCCCC3)CCO4)ccc2n1` [Compound B10], for which the IC50 was determined as 5 nM.

As to `CC(=O)Nc1cn2nc(-c3cnc4c(c3)N(C(=O)OC3CCCCC3)CCO4)ccc2n1` [Compound B12], the IC50 is 11 nM.

Consider `CC(C)(C)OC(=O)Nc1nc2ccc(-c3cnc4c(c3)N(C(=O)OC3CCOCC3)CCO4)cc2s1` [Compound B17, tetrahydro-2H-pyran-4-yl-7-(2-((tert-butoxycarbonyl)amino)benzo[d]thiazol-6-yl)-2,3-dihydro-1H-pyrido[2,3-b][1,4]oxazine-1-carboxylate], for which the IC50 was determined as 26 nM.

Compound `CC(=O)Nc1nc2ccc(-c3cnc4c(c3)N(C(=O)OC3CCCCCC3)CCO4)cc2s1` [Compound B26] registered an IC50 of 3.2 nM.

`CC(=O)Nc1nc2ccc(-c3cnc4c(c3)N(C(=O)OC3COCCOC3)CCO4)cc2s1` [Compound B27] came in with an IC50 of 132 nM.

Compound `CC(=O)Nc1nc2ccc(-c3cnc4c(c3)N(C(=O)NC3CCCCC3)CCO4)cc2s1` [Compound B28] showed an IC50 of 39 nM.

In the case of `CC(=O)Nc1nc2ccc(-c3cnc4c(c3)N(C(=O)CC3CCCCC3)CCO4)cc2s1` [Compound B29], the IC50 was determined as 27 nM.

`CC(=O)Nc1nc2ccc(-c3cnc4c(c3)N(C(=O)CC(C)(C)C)CCO4)cc2s1` [Compound B30] had a concentration for half-maximal inhibition (IC50) of 186 nM.

With `CC(=O)Nc1nc2ccc(-c3cnc4c(c3)N(C(=O)OC3CCCCC3)CCO4)nc2s1` [Compound B31], half-maximal inhibition (IC50) was put at 8.5 nM.

On to `O=C(Nc1nc2ccc(-c3cnc4c(c3)N(C(=O)OC3CCCCC3)CCO4)nc2s1)C1CC1` [Compound B32], for which the IC50 was found to be 0.9 nM.

`O=C1CCn2c(nc3ccc(-c4cnc5c(c4)N(C(=O)OC4CCCCC4)CCO5)cc32)N1` [Compound B33, Cyclohexyl7-(2-oxo-1,2,3,4-tetrahydrobenzo[4,5]imidazo[1,2-a]pyrimidin-7-yl)-2,3-dihydro-1H-pyrido[2,3-b][1,4]oxazine-1-carboxylate] returned an IC50 of 15 nM. This IC50 lies about 17-fold higher than the previous one.

As to `O=C1Cn2c(nc3ccc(-c4cnc5c(c4)N(C(=O)OC4CCCCC4)CCO5)cc32)N1` [Compound B34], the half-inhibitory concentration (IC50) was found to be 2300 nM. This IC50 is about 150-fold higher than that of the compound before.

Compound `CC(=O)Nc1nc2ccc(-c3cnc4c(c3)N(C(=O)CC3CCOCC3)CCO4)cc2s1` [Compound B36] gave a 50% inhibitory concentration (IC50) of 530 nM.

Compound `CC(=O)Nc1nc2ccc(-c3cnc4c(c3)N(C(=O)OC3CCCCC3)CC(=O)N4)cc2s1` [Compound B39, Cyclohexyl-7-(2-acetamidobenzo[d]thiazol-6-yl)-3-oxo-3,4-dihydropyrido[2,3-b]pyrazine-1(2H)-carboxylate] returned a concentration for half-maximal inhibition (IC50) of 2700 nM.

For the compound `CC(=O)Nc1nc2ccc(-c3cnc4c(c3)N(C(=O)OC3CCCCC3)CCN4)cc2s1` [Compound B40, Cyclohexyl-7-(2-acetamidobenzo[d]thiazol-6-yl)-3,4-dihydropyrido[2,3-b]pyrazine-1(2H)-carboxylate], the concentration for half-maximal inhibition (IC50) came to 24 nM.

In turn, `CC(=O)Nc1nc2ccc(-c3cnc4c(c3)N(C(=O)OC3CCOCC3)CCN4)cc2s1` [Compound B41] registered an IC50 of 110 nM. Against the preceding compound, the IC50 is about 4.6-fold higher.

`O=C(Nc1nc2ccc(-c3cnc4c(c3)N(C(=O)OC3CCOCC3)CCN4)cc2s1)C1CC1` [Compound B42] displayed an IC50 of 38 nM.

Regarding `CC(=O)Nc1nc2ccc(-c3cnc4c(c3)N(C(=O)OC3CCCCC3)CCN4C)cc2s1` [Compound B43, cyclohexyl7-(2-acetamidobenzo[d]thiazol-6-yl)-4-methyl-3,4-dihydropyrido[2,3-b]pyrazine-1(2H)-carboxylate], the IC50 was 13 nM.

`CC(=O)Nc1nc2ccc(-c3cnc4c(c3)N(C(=O)OC3CCOCC3)CCN4C)cc2s1` [Compound B44] came in with a 50% inhibitory concentration (IC50) of 95 nM.

For the compound `CN1CCN(C(=O)OC2CCOCC2)c2cc(-c3ccc4nc(NC(=O)C5CC5)sc4c3)cnc21` [Compound B45], it took 18 nM to reach half-maximal inhibition (IC50).

With `CCN1CCN(C(=O)OC2CCCCC2)c2cc(-c3ccc4nc(NC(C)=O)sc4c3)cnc21` [Compound B46], half-maximal inhibition (IC50) was put at 70 nM.

`CC(=O)Nc1nc2ccc(-c3cnc4c(c3)N(C(=O)OC3CCCCC3)CCN4C3CC3)cc2s1` [Compound B47]: the half-maximal inhibitory concentration (IC50) came out at 157 nM. Compared with the last compound, the IC50 is about 2.2-fold higher.

The compound `CC(=O)Nc1nc2ccc(-c3cnc4c(c3)N(C(=O)OC3CCCCC3)CCC4)cc2s1` [Compound B48, cyclohexyl-7-(2-acetamidobenzo[d]thiazol-6-yl)-3,4-dihydro-1,5-naphthyridine-1(2H)-carboxylate] came in with an IC50 of 2.4 nM.

For `CC(=O)Nc1nc2ccc(-c3cnc4c(c3)N(C(=O)OC3CCOCC3)CCC4)cc2s1` [Compound B49], inhibition was half-maximal at 11.4 nM (IC50).

`O=C(Nc1nc2ccc(-c3cnc4c(c3)N(C(=O)OC3CCOCC3)CCC4)cc2s1)C1CC1` [Compound B50, tetrahydro-2H-pyran-4-yl-7-(2-(cyclopropanecarboxamido)benzo[d]thiazol-6-yl)-3,4-dihydro-1,5-naphthyridine-1(2H)-carboxylate] gave an IC50 of 1.5 nM. Compared with the last compound, the IC50 is about 7.6-fold lower.

`O=C(Nc1nc2ccc(-c3cnc4c(c3)N(C(=O)OC3CCOCC3)CCC4)nc2s1)C1CC1` [Compound B51] came in with an IC50 of 7.2 nM.

Compound `CC(=O)Nc1nc2ccc(-c3cnc4c(c3)N(C(=O)OC3CCCCC3)CC4)cc2s1` [Compound B52] yielded a half-inhibitory concentration (IC50) of 5 nM.

The compound `CC(=O)Nc1nc2ccc(-c3cnc4c(c3)N(C(=O)OC3CCOCC3)CC4)cc2s1` [Compound B53, tetrahydro-2H-pyran-4-yl6-(2-acetamidobenzo[d]thiazol-6-yl)-2,3-dihydro-1H-pyrrolo[3,2-b]pyridine-1-carboxylate] returned an IC50 of 4.7 nM.

As for `O=C(Nc1nc2ccc(-c3cnc4c(c3)N(C(=O)OC3CCOCC3)CC4)cc2s1)C1CC1` [Compound B54], the IC50 turned out to be 2 nM.

For `CC(=O)Nc1cn2cc(-c3cnc4c(c3)N(C(=O)OC3CCOCC3)CC4)ccc2n1` [Compound B55], the half-inhibitory concentration (IC50) stood at 49 nM. This IC50 lies about 24-fold higher than the previous one.

`O=C(Nc1cn2cc(-c3cnc4c(c3)N(C(=O)OC3CCOCC3)CC4)ccc2n1)C1CC1` [Compound B56] showed a half-maximal inhibitory concentration (IC50) of 4.6 nM. This IC50 is about 11-fold lower than that of the compound before.

In turn, `O=C(Nc1cn2nc(-c3cnc4c(c3)N(C(=O)OC3CCOCC3)CC4)ccc2n1)C1CC1` [Compound B58] displayed an IC50 of 17 nM.

In turn, `O=C(Nc1nc2ccc(-c3cnc4c(c3)N(C(=O)OC3CCOCC3)CC4)nc2s1)C1CC1` [Compound B59, tetrahydro-2H-pyran-4-yl6-(2-(cyclopropanecarboxamido)thiazolo[5,4-b]pyridin-5-yl)-2,3-dihydro-1H-pyrrolo[3,2-b]pyridine-1-carboxylate] had a half-maximal inhibitory concentration (IC50) of 7 nM. This IC50 is about 2.4-fold lower than that of the compound before.

For the compound `CC(=O)Nc1nc2ccc(-c3cnc4c(c3)N(C(=O)CC3CCOCC3)CC4)cc2s1` [Compound B61], 39 nM corresponded to half-maximal inhibition (IC50).
